The values that follow come from PubChem BioAssay AID743410 (Sanford-Burnham Center for Chemical Genomics, 2014).

Each structure is given as a SMILES string.

This test has as its system RS11846 B cell chemotaxis to 7a,25-OHC, calcein fluorescence. The test can be described thus: EBI2 antagonists in B cell chemotaxis, dose response, 7a,25-OHC, calcein fluorescence (AID 743410).

The IC50 is the midpoint of a concentration-inhibition curve. Turning to `O=C(/C=C/c1ccc(Br)cc1)N1CCN(Cc2ccc(Cl)cc2)CC1`, the IC50 was 6.24 nM.
